Results from patent US8329658B2, “Arylalkyl and heteroarylalkyl derivatives of cyclosporine A for the treatment and prevention of viral infection” (Scynexis, Inc., priority 2005, dated 2012).

Experiments:
HCV RNA replicon ET = assay: HCV RNA replicon luciferase (LUC) reporter assay in ET cell line; assay type: cell-based; conditions: replicon LUC activity, ET cells, 72 hours; for EC50: concentration reducing viral replication by 50%; for EC90: concentration reducing viral replication by 90%
From the text: (§1) Compounds were examined in the human hepatoma cell line ET (lub ubi neo/ET), a HCV RNA replicon containing a stable luciferase (LUC) reporter. The HCV RNA replicon ET contains the 5′ end of HCV (with the HCV Internal Ribosome Entry Site (IRES) and the first few amino acids of the HCV core protein) which drives the production of a firefly luciferase (LUC), ubiquitin, and neomycin phosphotransferase (NeoR) fusion protein. Ubiquitin cleavage releases the LUC and NeoR proteins. The EMCV IRES element controls the translation of the HCV […] NS3-NS5. The NS3 protein cleaves the HCV polyprotein to release the mature NS3, NS4A, NS4B, NS5A and NS5B proteins that are required for HCV replication. At the 3′ end of the replicon is the authentic 3′ NTR of HCV. The activity of the LUC reporter is directly proportional to HCV replication levels and positive-control antiviral compounds produce a reproducible antiviral response using the LUC endpoint.
(§2) The compounds were dissolved in DMSO at five half-log concentrations each, ranging from either 0.02 to 2 μM or 0.2 to 20 μM. Subconfluent cultures of the ET line were plated out into 96 well plates dedicated for the analysis of cell numbers (cytotoxicity) or antiviral activity and the next day the compounds were added to the appropriate wells. […] Compound EC50 and EC90 values were derived from HCV RNA levels assessed as HCV RNA replicon derived LUC activity. […] Compound IC50 and IC90 values were calculated using a colorimetric assay as an indication of cell numbers and cytotoxicity. The activity of the LUC reporter is directly proportional to HCV RNA levels in the human cell line. The HCV-replicon assay was validated in parallel experiments using interferon-alpha-2b as a positive control.

[1] = test system: human T-lymphoblastoid cell line, CEM-SS; assay: Cytotoxicity (MTS) in CEM-SS cells; assay type: cell-based; conditions: concentration resulting in 50% inhibition of cell growth
Description: (§3) The compounds of the present invention were tested for antiretroviral activity against human immunodeficiency virus-1 (HIV) using infection of the human T-lymphoblastoid cell line, CEM-SS, with the HIV strain HIV-1IIIB (Weislow et al., 1989, J. Natl. Cancer Inst. 81, 577-586). In this MTS cytoprotection assay, each experiment included cell control wells (cells only), virus control wells (cells plus virus), drug toxicity wells (cells plus drug only), drug colorimetric control wells (drug only) as well as experimental wells (drug plus cells plus virus). Compounds were first dissolved in DMSO and tested using six half-log dilutions, starting with a high concentration of either 20 or 2 μM. […] was added to each well in a volume of 50 μL, the amount of virus determined to give approximately 90% cell killing at 6 days post-infection. At assay termination, assay plates were stained with the soluble tetrazolium-based dye MTS (CellTiter 96 Reagent, Promega) to determine cell viability and quantify compound toxicity. MTS is metabolized by the mitochondria enzymes of metabolically active cells to yield a soluble formazan product, providing a quantitative analysis of cell viability and compound cytotoxicity. The assay was validated in parallel experiments using Zidovudine (3′-azido-3′-deoxythymidine or AZT) as a positive control. The assay included determinations of compound EC50 (concentration inhibiting virus replication by 50%), IC50 (concentration resulting in 50% inhibition of cell growth) and a selectivity index (IC50/EC50).

[2] = test system: human hepatoma cell line ET (lub ubi neo/ET); assay: Cytotoxicity (colorimetric cell number assay) in HCV replicon ET cell line; conditions: for IC50: read-out: Cytotoxicity IC50, concentration inhibiting cell viability by 50%, ET cells, 72 hours; for IC90: read-out: Cytotoxicity IC90, concentration inhibiting cell viability by 90%, ET cells, 72 hours
From the text: as §1, §2

HIV-1IIIB = assay: HIV MTS cytoprotection assay in CEM-SS cells; assay type: cell-based, human immunodeficiency virus-1 (HIV); conditions: concentration inhibiting virus replication by 50%, 6 days post-infection, NS is no significant activity
Description: as §3

Compound: CC=CCC(C)C(O)C1C(=O)NC(CC)C(=O)N(C)C(SCc2ccccc2)C(=O)N(C)C(CC(C)C)C(=O)NC(C(C)C)C(=O)N(C)C(CC(C)C)C(=O)NC(C)C(=O)NC(C)C(=O)N(C)C(CC(C)C)C(=O)N(C)C(CC(C)C)C(=O)N(C)C(C(C)C)C(=O)N1C (stereo not drawn) [Compound A, 3-benzylthiocyclosporin]
- EC50 (HCV RNA replicon ET): 0.72 µM
- EC90 (HCV RNA replicon ET): 1.84 µM
- IC50 [1]: > 20 µM
- IC50 [2]: 20 µM
- IC90 [2]: > 20 µM
- EC50 (HIV-1IIIB): 0.53 µM

Compound: C/C=C/C[C@@H](C)[C@@H](O)[C@H]1C(=O)N[C@@H](CC)C(=O)N(C)C(OCc2ccc(OC(F)(F)F)cc2)C(=O)N(C)[C@@H](CC(C)C)C(=O)N[C@@H](C(C)C)C(=O)N(C)[C@@H](CC(C)C)C(=O)N[C@@H](C)C(=O)N[C@H](C)C(=O)N(C)[C@@H](CC(C)C)C(=O)N(C)[C@@H](CC(C)C)C(=O)N(C)[C@@H](C(C)C)C(=O)N1C (stereo partly drawn) [F, 3-[(4-trifluoromethoxy)benzyloxy]cyclosporin]
- EC50 (HCV RNA replicon ET): 1.18 µM
- EC90 (HCV RNA replicon ET): 5.42 µM
- IC50 [1]: > 20 µM
- IC50 [2]: > 20 µM
- IC90 [2]: > 20 µM
- EC50 (HIV-1IIIB): > 20 µM

Compound: C/C=C/C[C@@H](C)[C@@H](O)[C@H]1C(=O)N[C@@H](CC)C(=O)N(C)C(OCc2ccco2)C(=O)N(C)[C@@H](CC(C)C)C(=O)N[C@@H](C(C)C)C(=O)N(C)[C@@H](CC(C)C)C(=O)N[C@@H](C)C(=O)N[C@H](C)C(=O)N(C)[C@@H](CC(C)C)C(=O)N(C)[C@@H](CC(C)C)C(=O)N(C)[C@@H](C(C)C)C(=O)N1C (stereo partly drawn) [D, 3-[(furan-2-yl)methoxy]cyclosporin]
- EC50 (HCV RNA replicon ET): 0.29 µM
- EC90 (HCV RNA replicon ET): 0.57 µM
- IC50 [1]: > 20 µM
- IC50 [2]: 18 µM
- IC90 [2]: > 20 µM
- EC50 (HIV-1IIIB): 0.58 µM

Compound: 3-benzyloxycyclosporin [Compound B]
- EC50 (HCV RNA replicon ET): 0.26 µM
- EC90 (HCV RNA replicon ET): 0.59 µM
- IC50 [1]: > 20 µM
- IC50 [2]: 20 µM
- IC90 [2]: > 20 µM
- EC50 (HIV-1IIIB): 0.59 µM

Compound: C/C=C/C[C@@H](C)[C@@H](O)[C@H]1C(=O)N[C@@H](CC)C(=O)N(C)C(OCc2cccs2)C(=O)N(C)[C@@H](CC(C)C)C(=O)N[C@@H](C(C)C)C(=O)N(C)[C@@H](CC(C)C)C(=O)N[C@@H](C)C(=O)N[C@H](C)C(=O)N(C)[C@@H](CC(C)C)C(=O)N(C)[C@@H](CC(C)C)C(=O)N(C)[C@@H](C(C)C)C(=O)N1C (stereo partly drawn) [C, 3-[(thiophene-2-yl)methoxy]cyclosporin]
- EC50 (HCV RNA replicon ET): 0.35 µM
- EC90 (HCV RNA replicon ET): 1.26 µM
- IC50 [1]: > 20 µM
- IC50 [2]: 11 µM
- IC90 [2]: > 20 µM
- EC50 (HIV-1IIIB): 0.9 µM

Compound: C/C=C/C[C@@H](C)[C@@H](O)[C@H]1C(=O)N[C@@H](CC)C(=O)N(C)C(OCc2ccoc2)C(=O)N(C)[C@@H](CC(C)C)C(=O)N[C@@H](C(C)C)C(=O)N(C)[C@@H](CC(C)C)C(=O)N[C@@H](C)C(=O)N[C@H](C)C(=O)N(C)[C@@H](CC(C)C)C(=O)N(C)[C@@H](CC(C)C)C(=O)N(C)[C@@H](C(C)C)C(=O)N1C (stereo partly drawn) [Compound E, 3-[(furan-3-yl)methoxy]cyclosporin]
- EC50 (HCV RNA replicon ET): 0.25 µM
- EC90 (HCV RNA replicon ET): 0.6 µM
- IC50 [1]: > 20 µM
- IC50 [2]: > 20 µM
- IC90 [2]: > 20 µM
- EC50 (HIV-1IIIB): 0.88 µM

Compound: C/C=C/C[C@@H](C)[C@@H](O)[C@H]1C(=O)N[C@@H](CC)C(=O)N(C)C(OCc2ccsc2)C(=O)N(C)[C@@H](CC(C)C)C(=O)N[C@@H](C(C)C)C(=O)N(C)[C@@H](CC(C)C)C(=O)N[C@@H](C)C(=O)N[C@H](C)C(=O)N(C)[C@@H](CC(C)C)C(=O)N(C)[C@@H](CC(C)C)C(=O)N(C)[C@@H](C(C)C)C(=O)N1C (stereo partly drawn) [G, 3-[(thiophene-3-yl)methoxy]cyclosporin]
- EC50 (HCV RNA replicon ET): 0.35 µM
- EC90 (HCV RNA replicon ET): 0.4 µM
- IC50 [1]: > 20 µM
- IC50 [2]: > 20 µM
- IC90 [2]: > 20 µM
- EC50 (HIV-1IIIB): 3 µM
